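Exposure lasted 48 hours, with cells grown in 96-well plates and compounds tested at five concentrations. GI50: concentration for 50% inhibition of growth.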 Calls of active or inactive are those of the source. Rule as the data show it: active = GI50 up to about 1.1 µM and inactive = higher.
Tests used:
Assay in all cases: growth of human tumour cells (NCI), 48 h
SK-OV-3 = system: SK-OV-3
U-251 = system: U-251
NCI-H226 = system: NCI-H226
T47D = system: T47D
HOP-92 = system: HOP-92
DLD-1 = system: DLD-1
SF-295 = system: SF-295
KM-20L2 = system: KM-20L2
HCT-15 = system: HCT-15
PC-3 = system: PC-3
UACC-257 = system: UACC-257
A549 = system: A549
HCC 2998 = system: HCC 2998
SNB-78 = system: SNB-78
COLO 205 = system: COLO 205
SR = system: SR
UO-31 = system: UO-31
UACC-62 = system: UACC-62
RPMI-8226 = system: RPMI-8226
SN12C = system: SN12C
SK-MEL-5 = system: SK-MEL-5
M14 = system: M14
LXFL 529 = system: LXFL 529
CAKI-1 = system: CAKI-1
TK-10 = system: TK-10
HT-29 = system: HT-29
DMS-273 = system: DMS-273
SK-MEL-28 = system: SK-MEL-28
HOP-62 = system: HOP-62
OVCAR-4 = system: OVCAR-4
A498 = system: A498
NCI-H460 = system: NCI-H460
K562 = system: K562
MDA-MB-231 = system: MDA-MB-231
DU-145 = system: DU-145
MOLT-4 = system: MOLT-4
SK-MEL-2 = system: SK-MEL-2
DMS-114 = system: DMS-114
EKVX = system: EKVX
BT-549 = system: BT-549
OVCAR-8 = system: OVCAR-8
OVCAR-5 = system: OVCAR-5
CCRF-CEM = system: CCRF-CEM
SNB-19 = system: SNB-19
SF-268 = system: SF-268
NCI/ADR-RES = system: NCI/ADR-RES
SNB-75 = system: SNB-75
IGROV-1 = system: IGROV-1
OVCAR-3 = system: OVCAR-3
SW-620 = system: SW-620
Hs-578T = system: Hs-578T
786-0 = system: 786-0
HCT-116 = system: HCT-116
NCI-H522 = system: NCI-H522
M19-MEL = system: M19-MEL
HL-60 = system: HL-60
KM12 = system: KM12
Malme-3M = system: Malme-3M
MDA-N = system: MDA-N
XF498 = system: XF498
HOP-18 = system: HOP-18
MCF7 = system: MCF7
ACHN = system: ACHN
SF-539 = system: SF-539
MDA-MB-435 = system: MDA-MB-435
RXF 393 = system: RXF 393
LOX IMVI = system: LOX IMVI
NCI-H23 = system: NCI-H23

## CCN(CCO)CCNc1ccc(C)c2sc3ccccc3c(=O)c12
SK-OV-3
  GI50: 5.66 µM (inactive)
U-251
  GI50: 3.69 µM (inactive)
NCI-H226
  GI50: 4 µM (inactive)
T47D
  GI50: 3.01 µM (inactive)
HOP-92
  GI50: 4.37 µM (inactive)
DLD-1
  GI50: 3.83 µM (inactive)
SF-295
  GI50: 3.82 µM (inactive)
KM-20L2
  GI50: 2.59 µM (inactive)
HCT-15
  GI50: 4.15 µM
PC-3
  GI50: 3.31 µM (inactive)
UACC-257
  GI50: 2.75 µM (inactive)
A549
  GI50: 4.3 µM (inactive)
HCC 2998
  GI50: 2.28 µM (inactive)
SNB-78
  GI50: 7.05 µM (inactive)
COLO 205
  GI50: 1.63 µM (inactive)
SR
  GI50: 6.01 µM (inactive)
UO-31
  GI50: 5.41 µM (inactive)
UACC-62
  GI50: 1.76 µM (inactive)
RPMI-8226
  GI50: 4.28 µM (inactive)
SN12C
  GI50: 5.24 µM (inactive)
SK-MEL-5
  GI50: 2.59 µM (inactive)
M14
  GI50: 1.78 µM (inactive)
LXFL 529
  GI50: 2.77 µM (inactive)
CAKI-1
  GI50: 4.73 µM (inactive)
TK-10
  GI50: 8.81 µM (inactive)
HT-29
  GI50: 2.52 µM (inactive)
DMS-273
  GI50: 2.36 µM (inactive)
SK-MEL-28
  GI50: 2.02 µM (inactive)
HOP-62
  GI50: 3.97 µM (inactive)
OVCAR-4
  GI50: 7.8 µM (inactive)
A498
  GI50: 15 µM (inactive)
NCI-H460
  GI50: 1.73 µM (inactive)
K562
  GI50: 4.31 µM (inactive)
MDA-MB-231
  GI50: 1.88 µM (inactive)
DU-145
  GI50: 10.2 µM (inactive)
MOLT-4
  GI50: 4.43 µM (inactive)
SK-MEL-2
  GI50: 3.59 µM (inactive)
DMS-114
  GI50: 7.67 µM (inactive)
EKVX
  GI50: 12.5 µM (inactive)
BT-549
  GI50: 13.4 µM (inactive)
OVCAR-8
  GI50: 4.06 µM (inactive)
OVCAR-5
  GI50: 5.15 µM (inactive)
CCRF-CEM
  GI50: 6.04 µM (inactive)
SNB-19
  GI50: 11 µM (inactive)
SF-268
  GI50: 6.85 µM (inactive)
NCI/ADR-RES
  GI50: 3.07 µM (inactive)
SNB-75
  GI50: 3.01 µM (inactive)
IGROV-1
  GI50: 4.2 µM (inactive)
OVCAR-3
  GI50: 10.2 µM (inactive)
SW-620
  GI50: 2.28 µM (inactive)
Hs-578T
  GI50: 2.25 µM (inactive)
786-0
  GI50: 2.96 µM (inactive)
HCT-116
  GI50: 2.88 µM (inactive)
NCI-H522
  GI50: 4.89 µM (inactive)
M19-MEL
  GI50: 2 µM (inactive)
HL-60
  GI50: 3.37 µM (inactive)
KM12
  GI50: 3.68 µM (inactive)
Malme-3M
  GI50: 3.44 µM (inactive)
MDA-N
  GI50: 1.74 µM (inactive)
XF498
  GI50: 3.31 µM (inactive)
HOP-18
  GI50: 11.9 µM (inactive)
MCF7
  GI50: 1.8 µM (inactive)
ACHN
  GI50: 4.26 µM (inactive)
SF-539
  GI50: 3.75 µM (inactive)
MDA-MB-435
  GI50: 1.96 µM (inactive)
RXF 393
  GI50: 1.25 µM (inactive)
LOX IMVI
  GI50: 2.24 µM (inactive)
NCI-H23
  GI50: 8.05 µM (inactive)
